Test results as given in the supplement of paper PMC10307832.

Compound: Cc1cnc(CNC(=O)c2c(=O)c3ccc(N4CCCN(C)CC4)nc3n3c2sc2ccccc23)cn1 [CX-5461] + COc1cc2c(Oc3ccc(NC(=O)C4(C(=O)Nc5ccc(F)cc5)CC4)cc3F)ccnc2cc1OCCCN1CCOCC1 [Foretinib] (partner 0.25 µM)
Assay: relative viability (nuclei count vs DMSO), 5 days (fraction); higher = more cells survive
Details: first compound 1 µM
Procedure, shortened: (§1)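 Cells from lung cancer lines were seeded into 1536-well plates and, one day later, dosed by pin tool. Treatments were either a single drug or a fixed dose of an anchor drug with five library-drug doses (not always all listed) in √10 steps. After 5 days, nuclei were stained in a one-step fixation (final 0.05% Triton X-100, 1% formaldehyde, 1 ug/ml Hoechst) and counted on 4× images, and relative viability is the treated-to-vehicle nuclei ratio, as the median of duplicate plates.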

Cell Line	relative viability
NCI-H2126	0.838
EMC-BAC-2	0.885
NCI-H2085	0.826
Calu-6	0.698
HCC-366	0.931
NCI-H1666	0.692
NCI-H596	0.97
NCI-H1395	0.737
NCI-H2087	0.787
NCI-H2342	1.08
LK-2	1.24
H3255	0.835
COR-L23	0.597
COR-L 105	0.549
IA-LM	0.885
LOU-NH91	0.942
ChaGo-K-1	0.883
A549	0.385
SW 900	0.811
NCI-H2009	1.04
NCI-H661	0.673
SW 1573	0.531
NCI-H1299	1.11
NCI-H2228	0.13
NCI-H2023	0.108
NCI-H1563	0.569
SK-MES-1	0.838

Compound: Cc1cnc(CNC(=O)c2c(=O)c3ccc(N4CCCN(C)CC4)nc3n3c2sc2ccccc23)cn1 [CX-5461] + NC(=O)Nc1cc(-c2cccc(F)c2)sc1C(=O)N[C@H]1CCCNC1 [AZD7762] (partner 0.2 µM)
Assay: as above
Details: first compound 0.01 µM
Procedure, shortened: as §1

Cell Line	relative viability
NCI-H522	1.09
NCI-H727	0.48
NCI-H1993	0.754
NCI-H838	0.971
LCLC-103H	0.823
NCI-H2126	1.1
EMC-BAC-2	1.06
NCI-H2085	1.05
HCC-366	0.285
NCI-H1666	0.796
NCI-H596	1.07
NCI-H1395	0.377
NCI-H2087	1.22
NCI-H2342	0.444
LK-2	0.443
H3255	0.967
LOU-NH91	0.787
ChaGo-K-1	0.976
HCC-44	1.02
SW 900	0.657
NCI-H1648	0.647
NCI-H1792	0.838

Same assay, conditions: first compound 0.03162 µM

Cell Line	relative viability
NCI-H522	0.98
NCI-H727	0.709
NCI-H1703	0.11
NCI-H1993	0.893
NCI-H838	0.941
LCLC-103H	0.829
NCI-H2126	1.05
EMC-BAC-2	1.04
NCI-H2085	1.03
HCC-366	0.254
NCI-H1666	0.912
NCI-H596	1.01
NCI-H1395	0.328
NCI-H2087	1.42
NCI-H2342	0.486
LK-2	0.376
H3255	0.82
LOU-NH91	0.758
ChaGo-K-1	0.909
HCC-44	1.06
SW 900	0.627
NCI-H1648	0.785
NCI-H1792	0.677

Same assay, conditions: first compound 0.1 µM

Cell Line	relative viability
NCI-H522	0.713
NCI-H727	0.473
NCI-H1703	0.104
NCI-H1993	0.716
NCI-H838	1.01
LCLC-103H	0.819
NCI-H2126	0.981
EMC-BAC-2	0.864
NCI-H2085	0.918
HCC-366	0.177
NCI-H1666	0.728
NCI-H596	0.965
NCI-H1395	0.382
NCI-H2087	1.44
NCI-H2342	0.484
LK-2	0.299
H3255	0.943
LOU-NH91	0.74
ChaGo-K-1	0.758
HCC-44	0.952
NCI-H1648	0.655
NCI-H1792	0.5

Same assay, conditions: first compound 0.3162 µM

Cell Line	relative viability
NCI-H727	0.648
NCI-H1993	0.81
NCI-H838	0.698
LCLC-103H	0.68
NCI-H2126	1.05
EMC-BAC-2	0.919
NCI-H2085	1.04
HCC-366	0.117
NCI-H1666	0.856
NCI-H596	1.07
NCI-H1395	0.384
NCI-H2087	1.43
NCI-H2342	0.522
H3255	0.834
LOU-NH91	0.475
ChaGo-K-1	0.478
HCC-44	0.963
SW 900	0.544
NCI-H1648	0.771
NCI-H1792	0.667

Same assay, conditions: first compound 1 µM

Cell Line	relative viability
NCI-H522	0.79
NCI-H727	0.566
NCI-H1703	0.107
NCI-H1993	0.78
NCI-H838	0.696
LCLC-103H	0.762
NCI-H2126	0.903
EMC-BAC-2	0.566
NCI-H2085	0.719
HCC-366	0.0411
NCI-H1666	0.69
NCI-H596	0.515
NCI-H1395	0.337
NCI-H2087	1.13
NCI-H2342	0.469
LK-2	0.223
H3255	0.794
LOU-NH91	0.693
ChaGo-K-1	0.698
HCC-44	0.967
SW 900	0.311
NCI-H1648	0.592
NCI-H1792	0.0872

Compound: O=C(Nc1cc(C(F)(F)F)cc(C(F)(F)F)c1)c1cc(Cl)ccc1O [IMD-0354] + Cc1nc(NC(=O)N2CCC[C@H]2C(N)=O)sc1-c1ccnc(C(C)(C)C(F)(F)F)c1 [Alpelisib] (partner 2 µM)
Assay: as above
Details: first compound 0.04 µM
Procedure, shortened: as §1

Cell Line	relative viability
NCI-H727	0.606
EBC-1	0.882
NCI-H1703	0.312
NCI-H1993	0.762
SK-LU-1	1.39
NCI-H838	1.19
LCLC-103H	0.952
NCI-H520	0.906
NCI-H2126	0.784
EMC-BAC-2	0.796
NCI-H2085	0.899
Calu-6	0.925
HCC-366	0.509
NCI-H1666	0.982
NCI-H596	0.484
NCI-H1395	0.992
NCI-H2087	1.04
LK-2	1.77
